Source: patent publication US20240099996A1, “METHODS FOR TREATING CANCER” (Radius Pharmaceuticals, Inc., priority 2015, published 2024)
Where a name gives a salt, the structure may show the parent alone.

Assay: Phase 1 dose escalation study in healthy post-menopausal women, treatment related AEs
Assay type: in vivo
Description: The subjects were 40-75 years old with BMI of 18.0-30 kg/m^2. Subjects having evidence of clinically relevant pathology, increased risk of stroke or of history venous thromboembolic events, or use of concomitant medication less than 14 days prior to admission to clinical research center (paracetamol allowed up to 3 days prior) were excluded. Dosing
The subjects were treated with placebo or at least one dose p.o., q.d. after a light breakfast for 7 days at dose levels of 200 mg, 500 mg, 750 mg and 1000 mg, respectively.

Structure (SMILES): CCNCCc1ccc(CN(CC)c2cc(OC)ccc2[C@@H]2CCc3cc(O)ccc3C2)cc1 [RAD1901, (6R)-6-(2-(N-(4-(2-(ethylamino)ethyl)benzyl)-N-ethylamino)-4-methoxyphenyl)-5,6,7,8-tetrahydronaphthalen-2-ol dihydrochloride]
- Abdominal discomfort Gr1 (200 mg, N = 15): 3 (20) n(%)
- Abdominal discomfort Gr2 (200 mg, N = 15): 0 n(%)
- Abdominal discomfort Gr3 (200 mg, N = 15): 0 n(%)
- Abdominal distension Gr1 (200 mg, N = 15): 1 (7) n(%)
- Abdominal distension Gr2 (200 mg, N = 15): 1 (7) n(%)
- Abdominal distension Gr3 (200 mg, N = 15): 0 n(%)
- Abdominal pain Gr1 (200 mg, N = 15): 2 (13) n(%)
- Abdominal pain Gr2 (200 mg, N = 15): 2 (13) n(%)
- Abdominal pain Gr3 (200 mg, N = 15): 0 n(%)
- Diarrhoea Gr1 (200 mg, N = 15): 0 n(%)
- Diarrhoea Gr2 (200 mg, N = 15): 0 n(%)
- Diarrhoea Gr3 (200 mg, N = 15): 0 n(%)
- Dizziness Gr1 (200 mg, N = 15): 1 (7) n(%)
- Dizziness Gr2 (200 mg, N = 15): 0 n(%)
- Dizziness Gr3 (200 mg, N = 15): 0 n(%)
- Dyspepsia Gr1 (200 mg, N = 15): 3 (20) n(%)
- Dyspepsia Gr2 (200 mg, N = 15): 0 n(%)
- Dyspepsia Gr3 (200 mg, N = 15): 0 n(%)
- Dysphagia Gr1 (200 mg, N = 15): 0 n(%)
- Dysphagia Gr2 (200 mg, N = 15): 0 n(%)
- Dysphagia Gr3 (200 mg, N = 15): 0 n(%)
- Flatulance Gr1 (200 mg, N = 15): 2 (13) n(%)
- Flatulance Gr2 (200 mg, N = 15): 0 n(%)
- Flatulance Gr3 (200 mg, N = 15): 0 n(%)
- Headache Gr1 (200 mg, N = 15): 3 (20) n(%)
- Headache Gr2 (200 mg, N = 15): 0 n(%)
- Headache Gr3 (200 mg, N = 15): 0 n(%)
- Hiccups Gr1 (200 mg, N = 15): 1 (7) n(%)
- Hiccups Gr2 (200 mg, N = 15): 0 n(%)
- Hiccups Gr3 (200 mg, N = 15): 0 n(%)
- Hot flush Gr1 (200 mg, N = 15): 2 (13) n(%)
- Hot flush Gr2 (200 mg, N = 15): 0 n(%)
- Hot flush Gr3 (200 mg, N = 15): 0 n(%)
- Myalgia Gr1 (200 mg, N = 15): 2 (13) n(%)
- Myalgia Gr2 (200 mg, N = 15): 1 (7) n(%)
- Myalgia Gr3 (200 mg, N = 15): 0 n(%)
- Nausea Gr1 (200 mg, N = 15): 5 (33) n(%)
- Nausea Gr2 (200 mg, N = 15): 0 n(%)
- Nausea Gr3 (200 mg, N = 15): 0 n(%)
- Odynophagia Gr1 (200 mg, N = 15): 2 (13) n(%)
- Odynophagia Gr2 (200 mg, N = 15): 0 n(%)
- Odynophagia Gr3 (200 mg, N = 15): 0 n(%)
- Oesophageal pain Gr1 (200 mg, N = 15): 0 n(%)
- Oesophageal pain Gr2 (200 mg, N = 15): 2 (13) n(%)
- Oesophageal pain Gr3 (200 mg, N = 15): 0 n(%)
- Salivary hypersecretion Gr1 (200 mg, N = 15): 2 (13) n(%)
- Salivary hypersecretion Gr2 (200 mg, N = 15): 0 n(%)
- Salivary hypersecretion Gr3 (200 mg, N = 15): 0 n(%)
- Sensation of a foreign body Gr1 (200 mg, N = 15): 2 (13) n(%)
- Sensation of a foreign body Gr2 (200 mg, N = 15): 0 n(%)
- Sensation of a foreign body Gr3 (200 mg, N = 15): 0 n(%)
- Vomiting Gr1 (200 mg, N = 15): 2 (13) n(%)
- Vomiting Gr2 (200 mg, N = 15): 0 n(%)
- Vomiting Gr3 (200 mg, N = 15): 0 n(%)
- Abdominal discomfort Gr1 (500 mg, N = 14): 0 n(%)
- Abdominal discomfort Gr2 (500 mg, N = 14): 0 n(%)
- Abdominal discomfort Gr3 (500 mg, N = 14): 0 n(%)
- Abdominal distension Gr1 (500 mg, N = 14): 1 n(%)
- Abdominal distension Gr2 (500 mg, N = 14): 0 n(%)
- Abdominal distension Gr3 (500 mg, N = 14): 0 n(%)
- Abdominal pain Gr1 (500 mg, N = 14): 3 n(%)
- Abdominal pain Gr2 (500 mg, N = 14): 0 n(%)
- Abdominal pain Gr3 (500 mg, N = 14): 0 n(%)
- Diarrhoea Gr1 (500 mg, N = 14): 3 n(%)
- Diarrhoea Gr2 (500 mg, N = 14): 0 n(%)
- Diarrhoea Gr3 (500 mg, N = 14): 0 n(%)
- Dizziness Gr1 (500 mg, N = 14): 2 n(%)
- Dizziness Gr2 (500 mg, N = 14): 0 n(%)
- Dizziness Gr3 (500 mg, N = 14): 0 n(%)
- Dyspepsia Gr1 (500 mg, N = 14): 5 n(%)
- Dyspepsia Gr2 (500 mg, N = 14): 2 (14) n(%)
- Dyspepsia Gr3 (500 mg, N = 14): 0 n(%)
- Dysphagia Gr1 (500 mg, N = 14): 1 n(%)
- Dysphagia Gr2 (500 mg, N = 14): 2 (14) n(%)
- Dysphagia Gr3 (500 mg, N = 14): 0 n(%)
- Flatulance Gr1 (500 mg, N = 14): 2 n(%)
- Flatulance Gr2 (500 mg, N = 14): 0 n(%)
- Flatulance Gr3 (500 mg, N = 14): 0 n(%)
- Headache Gr1 (500 mg, N = 14): 1 n(%)
- Headache Gr2 (500 mg, N = 14): 1 (7) n(%)
- Headache Gr3 (500 mg, N = 14): 0 n(%)
- Hiccups Gr1 (500 mg, N = 14): 4 n(%)
- Hiccups Gr2 (500 mg, N = 14): 0 n(%)
- Hiccups Gr3 (500 mg, N = 14): 0 n(%)
- Hot flush Gr1 (500 mg, N = 14): 6 n(%)
- Hot flush Gr2 (500 mg, N = 14): 0 n(%)
- Hot flush Gr3 (500 mg, N = 14): 0 n(%)
- Myalgia Gr1 (500 mg, N = 14): 0 n(%)
- Myalgia Gr2 (500 mg, N = 14): 1 (7) n(%)
- Myalgia Gr3 (500 mg, N = 14): 0 n(%)
- Nausea Gr1 (500 mg, N = 14): 3 n(%)
- Nausea Gr2 (500 mg, N = 14): 2 (14) n(%)
- Nausea Gr3 (500 mg, N = 14): 0 n(%)
- Odynophagia Gr1 (500 mg, N = 14): 1 n(%)
- Odynophagia Gr2 (500 mg, N = 14): 1 (7) n(%)
- Odynophagia Gr3 (500 mg, N = 14): 0 n(%)
- Oesophageal pain Gr1 (500 mg, N = 14): 1 n(%)
- Oesophageal pain Gr2 (500 mg, N = 14): 3 (21) n(%)
- Oesophageal pain Gr3 (500 mg, N = 14): 0 n(%)
- Salivary hypersecretion Gr1 (500 mg, N = 14): 2 n(%)
- Salivary hypersecretion Gr2 (500 mg, N = 14): 0 n(%)
- Salivary hypersecretion Gr3 (500 mg, N = 14): 0 n(%)
- Sensation of a foreign body Gr1 (500 mg, N = 14): 1 n(%)
- Sensation of a foreign body Gr2 (500 mg, N = 14): 0 n(%)
- Sensation of a foreign body Gr3 (500 mg, N = 14): 0 n(%)
- Vomiting Gr1 (500 mg, N = 14): 1 n(%)
- Vomiting Gr2 (500 mg, N = 14): 5 (36) n(%)
- Vomiting Gr3 (500 mg, N = 14): 1 (7) n(%)
- Abdominal discomfort Gr1 (750 mg, N = 8): 1 (13) n(%)
- Abdominal discomfort Gr2 (750 mg, N = 8): 1 (13) n(%)
- Abdominal discomfort Gr3 (750 mg, N = 8): 0 n(%)
- Abdominal distension Gr1 (750 mg, N = 8): 1 (13) n(%)
- Abdominal distension Gr2 (750 mg, N = 8): 0 n(%)
- Abdominal distension Gr3 (750 mg, N = 8): 0 n(%)
- Abdominal pain Gr1 (750 mg, N = 8): 1 (13) n(%)
- Abdominal pain Gr2 (750 mg, N = 8): 0 n(%)
- Abdominal pain Gr3 (750 mg, N = 8): 0 n(%)
- Diarrhoea Gr1 (750 mg, N = 8): 0 n(%)
- Diarrhoea Gr2 (750 mg, N = 8): 0 n(%)
- Diarrhoea Gr3 (750 mg, N = 8): 0 n(%)
- Dizziness Gr1 (750 mg, N = 8): 1 (13) n(%)
- Dizziness Gr2 (750 mg, N = 8): 0 n(%)
- Dizziness Gr3 (750 mg, N = 8): 0 n(%)
- Dyspepsia Gr1 (750 mg, N = 8): 4 (50) n(%)
- Dyspepsia Gr2 (750 mg, N = 8): 0 n(%)
- Dyspepsia Gr3 (750 mg, N = 8): 0 n(%)
- Dysphagia Gr1 (750 mg, N = 8): 3 (38) n(%)
- Dysphagia Gr2 (750 mg, N = 8): 1 (13) n(%)
- Dysphagia Gr3 (750 mg, N = 8): 0 n(%)
- Flatulance Gr1 (750 mg, N = 8): 1 (13) n(%)
- Flatulance Gr2 (750 mg, N = 8): 0 n(%)
- Flatulance Gr3 (750 mg, N = 8): 0 n(%)
- Headache Gr1 (750 mg, N = 8): 3 (38) n(%)
- Headache Gr2 (750 mg, N = 8): 0 n(%)
- Headache Gr3 (750 mg, N = 8): 0 n(%)
- Hiccups Gr1 (750 mg, N = 8): 2 (25) n(%)
- Hiccups Gr2 (750 mg, N = 8): 0 n(%)
- Hiccups Gr3 (750 mg, N = 8): 0 n(%)
- Hot flush Gr1 (750 mg, N = 8): 2 (25) n(%)
- Hot flush Gr2 (750 mg, N = 8): 0 n(%)
- Hot flush Gr3 (750 mg, N = 8): 0 n(%)
- Myalgia Gr1 (750 mg, N = 8): 1 (13) n(%)
- Myalgia Gr2 (750 mg, N = 8): 0 n(%)
- Myalgia Gr3 (750 mg, N = 8): 0 n(%)
- Nausea Gr1 (750 mg, N = 8): 2 (25) n(%)
